From the NIST ThermoML archive (doi:10.1016/j.tca.2011.06.003)
± gives the expanded uncertainty stated by the source.

Test: xn = mol fraction of the nth substance listed
Conditions: 101 kPa, Liquid; for speed of sound: Sing-around technique in a fixed-path interferometer; for mass density: Vibrating tube method

NCCNCCN [di(2-aminoethyl)amine] + CCCCO
Conditions	mass density [kg/m3]	speed of sound [m/s]	viscosity [mPa·s]
293.15 K, x1 = 0.0517	821.995 ± 0.14	1288 ± 0.8	–
293.15 K, x1 = 0.1085	834.306 ± 0.14	1319.9 ± 0.8	–
293.15 K, x1 = 0.153	843.084 ± 0.13	1343.3 ± 0.9	–
293.15 K, x1 = 0.2024	852.085 ± 0.13	1369.5 ± 0.9	–
293.15 K, x1 = 0.2524	860.585 ± 0.13	1393.7 ± 0.9	–
293.15 K, x1 = 0.3079	869.265 ± 0.12	1419.6 ± 0.9	–
293.15 K, x1 = 0.4082	883.406 ± 0.12	1464.1 ± 0.9	–
293.15 K, x1 = 0.5013	895.464 ± 0.12	1502.4 ± 0.9	–
293.15 K, x1 = 0.6067	908.152 ± 0.11	1543.5 ± 0.9	–
293.15 K, x1 = 0.7079	919.755 ± 0.11	1581.6 ± 0.9	–
293.15 K, x1 = 0.8	929.638 ± 0.1	1616.5 ± 0.9	–
293.15 K, x1 = 0.8548	935.634 ± 0.1	1637 ± 0.9	–
293.15 K, x1 = 0.9075	941.042 ± 0.1	1656.6 ± 0.9	–
293.15 K, x1 = 0.9525	945.451 ± 0.099	1673.3 ± 1	–
298.15 K, x1 = 0.0517	818.115 ± 0.14	1271 ± 0.8	3.066 ± 0.035
298.15 K, x1 = 0.1085	830.363 ± 0.14	1302.9 ± 0.8	3.551 ± 0.04
298.15 K, x1 = 0.153	839.101 ± 0.14	1327.1 ± 0.8	3.907 ± 0.044
298.15 K, x1 = 0.2024	848.068 ± 0.13	1351.9 ± 0.9	4.256 ± 0.048
298.15 K, x1 = 0.2524	856.54 ± 0.13	1376.5 ± 0.9	4.526 ± 0.051
298.15 K, x1 = 0.3079	865.207 ± 0.12	1402.5 ± 0.9	4.772 ± 0.053
298.15 K, x1 = 0.4082	879.335 ± 0.12	1446.5 ± 0.9	5.076 ± 0.056
298.15 K, x1 = 0.5013	891.374 ± 0.12	1484.6 ± 0.9	5.214 ± 0.058
298.15 K, x1 = 0.6067	904.038 ± 0.11	1525.4 ± 0.9	5.317 ± 0.058
298.15 K, x1 = 0.7079	915.617 ± 0.11	1562.9 ± 0.9	5.331 ± 0.058
298.15 K, x1 = 0.8	925.474 ± 0.11	1597.5 ± 0.9	5.368 ± 0.059
298.15 K, x1 = 0.8548	931.448 ± 0.1	1617.8 ± 0.9	5.433 ± 0.059
298.15 K, x1 = 0.9075	936.842 ± 0.1	1637.4 ± 0.9	5.485 ± 0.06
298.15 K, x1 = 0.9525	941.233 ± 0.1	1653.8 ± 0.9	5.562 ± 0.06
303.15 K, x1 = 0.0517	814.209 ± 0.14	1254.2 ± 0.8	2.576 ± 0.03
303.15 K, x1 = 0.1085	826.401 ± 0.14	1285.9 ± 0.8	3.027 ± 0.035
303.15 K, x1 = 0.153	835.096 ± 0.14	1309.9 ± 0.8	3.256 ± 0.037
303.15 K, x1 = 0.2024	844.036 ± 0.13	1335.1 ± 0.8	3.52 ± 0.04
303.15 K, x1 = 0.2524	852.484 ± 0.13	1359.6 ± 0.9	3.768 ± 0.043
303.15 K, x1 = 0.3079	861.136 ± 0.13	1385.5 ± 0.9	3.919 ± 0.044
303.15 K, x1 = 0.4082	875.244 ± 0.12	1429.3 ± 0.9	4.169 ± 0.047
303.15 K, x1 = 0.5013	887.28 ± 0.12	1467.1 ± 0.9	4.262 ± 0.048
303.15 K, x1 = 0.6067	899.921 ± 0.11	1507.7 ± 0.9	4.302 ± 0.048
303.15 K, x1 = 0.7079	911.479 ± 0.11	1545.1 ± 0.9	4.323 ± 0.049
303.15 K, x1 = 0.8	921.305 ± 0.11	1579.2 ± 0.9	4.335 ± 0.049
303.15 K, x1 = 0.8548	927.266 ± 0.1	1598.6 ± 0.9	4.346 ± 0.049
303.15 K, x1 = 0.9075	932.668 ± 0.1	1617.5 ± 0.9	4.366 ± 0.049
303.15 K, x1 = 0.9525	937.017 ± 0.1	1633.6 ± 0.9	4.422 ± 0.05
308.15 K, x1 = 0.0517	810.286 ± 0.14	1237.4 ± 0.8	2.27 ± 0.026
308.15 K, x1 = 0.1085	822.424 ± 0.14	1269.3 ± 0.8	2.622 ± 0.03
308.15 K, x1 = 0.153	831.084 ± 0.14	1293.2 ± 0.8	2.81 ± 0.032
308.15 K, x1 = 0.2024	839.988 ± 0.13	1318.5 ± 0.8	3.027 ± 0.035
308.15 K, x1 = 0.2524	848.419 ± 0.13	1343 ± 0.8	3.198 ± 0.037
308.15 K, x1 = 0.3079	857.059 ± 0.13	1368.6 ± 0.9	3.341 ± 0.038
308.15 K, x1 = 0.4082	871.155 ± 0.12	1412.2 ± 0.9	3.524 ± 0.04
308.15 K, x1 = 0.5013	883.174 ± 0.12	1450.2 ± 0.9	3.617 ± 0.041
308.15 K, x1 = 0.6067	895.798 ± 0.12	1490 ± 0.9	3.642 ± 0.041
308.15 K, x1 = 0.7079	907.33 ± 0.11	1527.2 ± 0.9	3.671 ± 0.042
308.15 K, x1 = 0.8	917.129 ± 0.11	1560.9 ± 0.9	3.689 ± 0.042
308.15 K, x1 = 0.8548	923.082 ± 0.11	1580.1 ± 0.9	3.712 ± 0.042
308.15 K, x1 = 0.9075	928.432 ± 0.1	1598.6 ± 0.9	3.731 ± 0.042
308.15 K, x1 = 0.9525	932.798 ± 0.1	1614.5 ± 0.9	3.771 ± 0.043
313.15 K, x1 = 0.0517	806.326 ± 0.15	1220.9 ± 0.8	–
313.15 K, x1 = 0.1085	818.415 ± 0.14	1253.3 ± 0.8	–
313.15 K, x1 = 0.153	827.042 ± 0.14	1277.3 ± 0.8	–
313.15 K, x1 = 0.2024	835.917 ± 0.14	1302.4 ± 0.8	–
313.15 K, x1 = 0.2524	844.331 ± 0.13	1327.4 ± 0.8	–
313.15 K, x1 = 0.3079	852.959 ± 0.13	1352.7 ± 0.9	–
313.15 K, x1 = 0.4082	867.047 ± 0.12	1396.2 ± 0.9	–
313.15 K, x1 = 0.5013	879.057 ± 0.12	1433.9 ± 0.9	–
313.15 K, x1 = 0.6067	891.664 ± 0.12	1473.9 ± 0.9	–
313.15 K, x1 = 0.7079	903.173 ± 0.11	1510.5 ± 0.9	–
313.15 K, x1 = 0.8	912.964 ± 0.11	1543.6 ± 0.9	–
313.15 K, x1 = 0.8548	918.81 ± 0.11	1563 ± 0.9	–
313.15 K, x1 = 0.9075	924.23 ± 0.11	1580.1 ± 0.9	–
313.15 K, x1 = 0.9525	928.584 ± 0.1	1594.8 ± 0.9	–
